Reference: patent US20240218022A1, “ANTI-VISTA MACROCYCLIC PEPTIDES AND COMPOSITIONS” (BRISTOL-MYERS SQUIBB COMPANY, priority 2022, published 2024)
pIC50: −log10 of the molar value. Read-outs that look alike come from different tables or passages of the source. Starred links: 1 amine or outer side, 2 acyl side, 3 side chain; linkers in the order of their positions; H or OH if unused. Positions of bridges follow the written chain, without caps; N, C: chain ends. Non-standard residues stand in square brackets, D forms with d. Residues, ends and D or L forms follow the SMILES beside them. ξ: configuration not given here. *: point of attachment. Phe(3,4,5-F3) = N[C@@H](Cc1cc(F)c(F)c(F)c1)C(=O)O; Phe(4-COOH) = N[C@@H](Cc1ccc(C(=O)O)cc1)C(=O)O; X1 = C=CCOc1ccccc1C[C@H](N[*:1])C(=O)[*:2]; Phe(3-Me) = Cc1cccc(C[C@H](N)C(=O)O)c1; 2Nal = N[C@@H](Cc1ccc2ccccc2c1)C(=O)O; βAsp = O=C(O)[C@H](CC(=O)[*:2])N[*:1]; Tic = O=C(O)[C@@H]1Cc2ccccc2CN1; NMeL = CN[C@@H](CC(C)C)C(=O)O; Ahp(2) = CCCCC[C@H](N)C(=O)O; NMeNle = CCCC[C@H](NC)C(=O)O; Tle = CC(C)(C)[C@H](N)C(=O)O; NHexGly = CCCCCCNCC(=O)O; Nle = CCCC[C@H](N)C(=O)O; Aun = NCCCCCCCCCCC(=O)O; AEEA = NCCOCCOCC(=O)O; ξS = NC(CO)C(=O)O; Allyl = C=CC*

Molecular target: T1, mouse VISTA (mVISTA) (Mus musculus, UniProt Q9D659)
T1 construct: expressed in transfected cells; host or cells: Human embryonic kidney 293T cells
T1 sequence (Q9D659 33-308): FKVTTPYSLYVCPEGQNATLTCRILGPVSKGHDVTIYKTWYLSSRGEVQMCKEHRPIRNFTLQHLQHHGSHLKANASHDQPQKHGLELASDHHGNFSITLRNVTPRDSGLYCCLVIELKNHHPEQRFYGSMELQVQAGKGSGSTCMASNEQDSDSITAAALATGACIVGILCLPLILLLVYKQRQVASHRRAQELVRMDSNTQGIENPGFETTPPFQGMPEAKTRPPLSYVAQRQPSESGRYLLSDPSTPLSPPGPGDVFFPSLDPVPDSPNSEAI
Assay: Cell-Based Binding High-Content Assay For mVISTA (HC CBA mVISTA)
Summary of the method: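 This high-content binding assay uses HEK293T cells expressing murine VISTA, measuring displacement of 2 nM biotinylated peptide by fluorescent streptavidin imaging. IC50 values come from four-parameter logistic fitting.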

[1] = cell-based binding high-content assay, mVISTA, the 16th table, read-out: HC CBA mVISTA IC50
[2] = the 20th table, scaffold drawing 23, read-out: HC CBA mVISTA IC50
[3] = 293T cells expressing mouse VISTA, competition with biotinylated peptide (2 nM), read-out: HC CBA mVISTA IC50

Work on `CCCCCCN1CC(=O)N[C@@H](Cc2ccc(O)cc2)C(=O)N[C@@H](C(C)C)C(=O)NCC(=O)N[C@@H](CCCNC(=N)N)C(=O)N[C@@H](CC(C)C)C(=O)N[C@@H](CCCCC)C(=O)N2CCC[C@H]2C(=O)N[C@@H](C(C)C)C(=O)N[C@@H](CC(=O)O)C(=O)N[C@H](C(=O)NCC(=O)O)CSCC(=O)N[C@@H](Cc2ccc3ccccc3c2)C(=O)N[C@@H](Cc2ccc(O)cc2)C(=O)N[C@@H](CC(=O)O)C1=O` [Ex 1280] ({CH2CO}-[2Nal]YD[NHexGly]YVGRL[Ahp(2)]PVDCG-OH; thioether N-14) yielded a pIC50 [1] of 7.47.

For `C=CCOc1ccc(C[C@@H]2NC(=O)CSC[C@@H](C(=O)NCC(N)=O)NC(=O)[C@H](CC(=O)O)NC(=O)[C@H](C(C)C)NC(=O)[C@@H]3CCCN3C(=O)[C@H](CCCCC)NC(=O)[C@H](CC(C)C)NC(=O)[C@H](CCCNC(=N)N)NC(=O)CNC(=O)[C@H](C(C)C)NC(=O)[C@H](Cc3ccc(O)cc3)NC(=O)CN(CCCCCC)C(=O)[C@H](CC(=O)O)NC(=O)[C@H](Cc3ccc(O)cc3)NC2=O)cc1` [compound 1475] ({CH2CO}-Y(Allyl)YD[NHexGly]YVGRL[Ahp(2)]PVDCG-NH2; thioether N-14), the pIC50 [2] was 7.97.

In the case of `CCCCCCN1CC(=O)N[C@@H](Cc2ccc(O)cc2)C(=O)N[C@@H](CCCC)C(=O)N[C@@H](CC(N)=O)C(=O)N[C@@H](CCCNC(=N)N)C(=O)N[C@@H](CC(C)C)C(=O)N[C@@H](CCCCC)C(=O)N2CCC[C@H]2C(=O)N[C@@H](C(C)C)C(=O)N[C@@H](CC(=O)O)C(=O)N[C@H](C(=O)NCC(=O)O)CSCC(=O)N[C@@H](Cc2cc(F)c(F)c(F)c2)C(=O)N[C@@H](Cc2c[nH]c3ccccc23)C(=O)N[C@@H](CC(=O)O)C1=O` [compound 1456] ({CH2CO}-[Phe(3,4,5-F3)]WD[NHexGly]Y[Nle]NRL[Ahp(2)]PVDCG-OH; thioether N-14), the pIC50 [2] was 7.77.

In the case of `CCCCCCN1CC(=O)N[C@@H](Cc2ccc(O)cc2)C(=O)N[C@@H](CCCC)C(=O)N[C@@H](CC(=O)O)C(=O)N[C@@H](CCCNC(=N)N)C(=O)N[C@@H](CC(C)C)C(=O)N[C@@H](CCCCC)C(=O)N2CCC[C@H]2C(=O)N[C@@H](C(C)C)C(=O)N[C@@H](CC(=O)O)C(=O)N[C@H](C(=O)NC(CO)C(N)=O)CSCC(=O)N[C@@H](Cc2ccccc2)C(=O)N[C@@H](Cc2cccc(C)c2)C(=O)N[C@@H](CC(=O)O)C1=O` (some centres unmarked) [compound 1330] ({CH2CO}-F[Phe(3-Me)]D[NHexGly]Y[Nle]DRL[Ahp(2)]PVDC[ξS]-NH2; thioether N-14), the pIC50 (read-out: HC CBA mVISTA IC50) was 7.77.

`CCCCCCN1CC(=O)N[C@@H](Cc2ccc(O)cc2)C(=O)N[C@@H](CC(C)C)C(=O)N[C@@H](CC(N)=O)C(=O)N[C@@H](CCCNC(=N)N)C(=O)N[C@@H](CC(C)C)C(=O)N[C@@H](CCCCC)C(=O)N2CCC[C@H]2C(=O)N[C@@H](C(C)C)C(=O)N[C@@H](C(C)C)C(=O)N[C@H](C(=O)NCCOCCOCC(=O)N[C@@H](CC(=O)O)C(=O)NCCOCCOCC(=O)NCCCCCCCCCCC(=O)O)CSCC(=O)N[C@@H](Cc2ccccc2)C(=O)N[C@@H](Cc2ccc(O)cc2)C(=O)N[C@@H](CC(=O)O)C1=O` (stereo in doubt) [compound 2291] gave a pIC50 (cell-based binding high-content assay, read-out: HC CBA miPrISTA IC50) of 7.76.

`CCCCCCN1CC(=O)N[C@@H](Cc2ccc(O)cc2)C(=O)N[C@@H](CCCC)C(=O)N[C@@H](CC(N)=O)C(=O)N[C@@H](CCCNC(=N)N)C(=O)N[C@@H](Cc2ccc(C(=O)O)cc2)C(=O)N[C@@H](CCCCC)C(=O)N2CCC[C@H]2C(=O)N[C@@H](C(C)C)C(=O)N[C@@H](CO)C(=O)N[C@H](C(=O)N[C@@H](CC(=O)NCCOCCOCC(=O)NCCCCCCCCCCC(=O)O)C(=O)O)CSCC(=O)N[C@@H](Cc2ccccc2)C(=O)N[C@@H](Cc2c[nH]c3ccccc23)C(=O)N[C@@H](CC(=O)O)C1=O` [Example 2176] ({CH2CO}-FWD[NHexGly]Y[Nle]NR[Phe(4-COOH)][Ahp(2)]PVSC[βAsp][AEEA][Aun]-OH; thioether N-14) was tested, and the pIC50 (read-out: HC CBA mVISTA IC50) was 7.70.

`CCCCCCN1CC(=O)N[C@@H](Cc2ccc(O)cc2)C(=O)N[C@@H](CCCC)C(=O)N[C@@H](CC(N)=O)C(=O)N[C@@H](CCCNC(=N)N)C(=O)N2Cc3ccccc3C[C@H]2C(=O)N[C@@H](CCCCC)C(=O)N2CCC[C@H]2C(=O)N[C@@H](C(C)C)C(=O)N[C@@H](CC(=O)O)C(=O)N[C@H](C(=O)NCC(N)=O)CSCC(=O)N[C@@H](Cc2ccccc2)C(=O)N[C@@H](Cc2c[nH]c3ccccc23)C(=O)N[C@@H](CC(=O)O)C1=O` [Example 1414] ({CH2CO}-FWD[NHexGly]Y[Nle]NR[Tic][Ahp(2)]PVDCG-NH2; thioether N-14) gave a pIC50 (read-out: HC CBA mVISTA IC50) of 7.91.

Work on `C=CCOc1ccccc1C[C@@H]1NC(=O)CSC[C@@H](C(=O)NCC(N)=O)NC(=O)[C@H](CO)NC(=O)[C@H](C(C)(C)C)NC(=O)[C@@H]2CCCN2C(=O)[C@H](CCCCC)NC(=O)[C@H](CCCC)N(C)C(=O)[C@H](CCCNC(=N)N)NC(=O)[C@H](CC(N)=O)NC(=O)[C@H](CC(C)C)NC(=O)[C@H](Cc2ccc(O)cc2)NC(=O)CN(CCCCCC)C(=O)[C@H](CC(=O)O)NC(=O)[C@H](Cc2ccc(O)cc2)NC1=O` [compound 1206] ({CH2CO}-[X1]YD[NHexGly]YLNR[NMeNle][Ahp(2)]P[Tle]SCG-NH2; thioether N-14) yielded a pIC50 (read-out: HC CBA mVISTA IC50) of 7.55.

For `CCCCCCN1CC(=O)N[C@@H](Cc2ccc(O)cc2)C(=O)N[C@@H](CCCC)C(=O)N[C@@H](CC(N)=O)C(=O)N[C@@H](CCCNC(=N)N)C(=O)N(C)[C@@H](CCCC)C(=O)N[C@@H](CCCCC)C(=O)N(C)[C@@H](CC(C)C)C(=O)N[C@@H](C(C)(C)C)C(=O)N[C@@H](CO)C(=O)N[C@H](C(=O)N[C@@H](CC(=O)NCCOCCOCC(=O)NCCCCCCCCCCC(=O)O)C(=O)O)CSCC(=O)N[C@@H](Cc2ccccc2)C(=O)N[C@@H](Cc2c[nH]c3ccccc23)C(=O)N[C@@H](CC(=O)O)C1=O` [Example 2179] ({CH2CO}-FWD[NHexGly]Y[Nle]NR[NMeNle][Ahp(2)][NMeL][Tle]SC[βAsp][AEEA][Aun]-OH; thioether N-14), the pIC50 (read-out: HC CBA mVISTA IC50) was 7.52.

For `CCCCCCN1CC(=O)N[C@@H](Cc2ccc(O)cc2)C(=O)N[C@@H](CC(C)C)C(=O)N[C@@H](CC(=O)O)C(=O)N[C@@H](CCCNC(=N)N)C(=O)N[C@@H](CC(C)C)C(=O)N[C@@H](CCCCC)C(=O)N2CCC[C@H]2C(=O)N[C@@H](C(C)C)C(=O)N[C@@H](CC(=O)O)C(=O)N[C@H](C(=O)NCC(=O)O)CSCC(=O)N[C@@H](Cc2ccc3ccccc3c2)C(=O)N[C@@H](Cc2ccc(O)cc2)C(=O)N[C@@H](CC(=O)O)C1=O` [Ex 1278] ({CH2CO}-[2Nal]YD[NHexGly]YLDRL[Ahp(2)]PVDCG-OH; thioether N-14), the pIC50 [1] was 7.62.

Work on `CCCCCCN1CC(=O)N[C@@H](Cc2ccc(O)cc2)C(=O)N[C@@H](CCCC)C(=O)N[C@@H](CC(=O)O)C(=O)N[C@@H](CCCNC(=N)N)C(=O)N[C@@H](CC(C)C)C(=O)N[C@@H](CCCCC)C(=O)N2CCC[C@H]2C(=O)N[C@@H](C(C)C)C(=O)N[C@@H](Cc2ccc(O)cc2)C(=O)N[C@H](C(=O)NCC(=O)O)CSCC(=O)N[C@@H](Cc2ccccc2)C(=O)N[C@@H](Cc2ccc(O)cc2)C(=O)N[C@@H](CC(=O)O)C1=O` [Example 1071] ({CH2CO}-FYD[NHexGly]Y[Nle]DRL[Ahp(2)]PVYCG-OH; thioether N-14) yielded a pIC50 [3] of 7.75.

`CCCCCCN1CC(=O)N[C@@H](Cc2ccc(O)cc2)C(=O)N[C@@H](CC(C)C)C(=O)N[C@@H](CC(N)=O)C(=O)N[C@@H](CCCNC(=N)N)C(=O)N[C@@H](CC(C)C)C(=O)N[C@@H](CCCCC)C(=O)N2CCC[C@H]2C(=O)N[C@@H](C(C)C)C(=O)N[C@@H](CCCNC(=N)N)C(=O)N[C@H](C(=O)NCC(=O)O)CSCC(=O)N[C@@H](Cc2ccccc2)C(=O)N[C@@H](Cc2ccc(O)cc2)C(=O)N[C@@H](CC(=O)O)C1=O` [Example 1030] ({CH2CO}-FYD[NHexGly]YLNRL[Ahp(2)]PVRCG-OH; thioether N-14) was tested, and the pIC50 [3] was 7.46.

Molecule `CCCCCCN1CC(=O)N[C@@H](Cc2ccc(O)cc2)C(=O)N[C@@H](CCCC)C(=O)N[C@@H](CC(N)=O)C(=O)N[C@@H](CCCNC(=N)N)C(=O)N[C@@H](CC(C)C)C(=O)N[C@@H](CCCCC)C(=O)N2CCC[C@H]2C(=O)N[C@@H](C(C)C)C(=O)N[C@@H](CC(=O)O)C(=O)N[C@H](C(=O)NCC(=O)O)CSCC(=O)N[C@@H](Cc2cc(F)c(F)c(F)c2)C(=O)N[C@@H](Cc2ccc(O)cc2)C(=O)N[C@@H](CC(=O)O)C1=O` [compound 1457] ({CH2CO}-[Phe(3,4,5-F3)]YD[NHexGly]Y[Nle]NRL[Ahp(2)]PVDCG-OH; thioether N-14) has a pIC50 [2] of 7.94.

With `CCCCCCN1CC(=O)N[C@@H](Cc2ccc(O)cc2)C(=O)N[C@@H](CCCCC)C(=O)N[C@@H](CC(N)=O)C(=O)N[C@@H](CCCNC(=N)N)C(=O)N(C)[C@@H](CCCC)C(=O)N[C@@H](CCCCC)C(=O)N2CCC[C@H]2C(=O)N[C@@H](C(C)C)C(=O)N[C@@H](C(C)C)C(=O)N[C@H](C(=O)NCC(=O)O)CSCC(=O)N[C@@H](Cc2ccc3ccccc3c2)C(=O)N[C@@H](Cc2c[nH]c3ccccc23)C(=O)N[C@@H](CC(=O)O)C1=O` [compound 1250] ({CH2CO}-[2Nal]WD[NHexGly]Y[Ahp(2)]NR[NMeNle][Ahp(2)]PVVCG-OH; thioether N-14) the pIC50 (cell-based binding high-content assay, mVISTA, the 15th table, read-out: HC CBA mVISTA IC50) was 7.66.
